The experiment addresses T1, recombinant human ALX receptor (Homo sapiens, UniProt P25090).
T1 construct: expressed in transfected cells; host or cells: HEK293 (HEK293-hALXR-Gα16)
T1 sequence (P25090 1-351): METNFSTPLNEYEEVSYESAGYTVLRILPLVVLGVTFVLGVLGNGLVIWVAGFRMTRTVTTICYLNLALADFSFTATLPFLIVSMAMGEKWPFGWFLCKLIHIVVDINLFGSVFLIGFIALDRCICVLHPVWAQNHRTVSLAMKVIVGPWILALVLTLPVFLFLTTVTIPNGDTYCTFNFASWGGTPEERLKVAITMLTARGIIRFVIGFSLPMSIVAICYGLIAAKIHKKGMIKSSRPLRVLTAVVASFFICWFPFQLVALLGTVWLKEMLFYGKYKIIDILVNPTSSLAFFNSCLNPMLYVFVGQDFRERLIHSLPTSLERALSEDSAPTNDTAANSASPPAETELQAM
As to the kind of experiment: Intracellular calcium measurements (FLIPR), ALX receptor agonistic activity. It is filed as cell-based. The following applies: HEK293-hALXR-Gα16 cells, Fluo-4 calcium signal, normalized to WKYMVm 10 nM. As for the experimental part: The ALX receptor agonistic activity of the compounds of formula (I) is determined in accordance with the following experimental method.
Intracellular Calcium Measurements:
Cells expressing recombinant human ALX receptor and the G-protein Gα16 (HEK293-hALXR-Gα16) were grown to 80% confluency in Growing Medium (GM). Cells were detached from culture dishes with a cell dissociation buffer (Invitrogen, 13151-014), and collected by centrifugation at 1′000 rpm at rt for 5 min in Assay Buffer (AB) (equal parts of Hank's BSS (Gibco, 14065-049) and DMEM without Phenol Red (Gibco, 11880-028)). After 60 min incubation at 37° C. under 5% CO2 in AB supplemented with 1 μM Fluo-4 (AM) (Invitrogen, F14202) and 20 mM HEPES (Gibco, 15630-056), the cells were washed and resuspended in AB. They were then seeded onto 384-well FLIPR assay plates (Greiner, 781091) at 50′000 cells in 70 μl per well and sedimented by centrifugation at 1′000 rpm for 1 min. Stock solutions of test compounds were made up at a concentration of 10 mM in DMSO, and serially diluted in AB to concentrations required for activation dose response curves. WKYMVm (Phoenix Peptides) was used as a reference agonist. A FLIPR Tetra instrument (Molecular Devices) was operated according to the manufacturer's standard instructions, adding 4 μl of test compound dissolved at 10 mM in DMSO and diluted prior to the experiment in assay buffer to obtain the desired final concentration. Changes in fluorescence were monitored before and after the addition of test compounds at lex=488 nm and lem=540 nm. Emission peak values above base level after compounds addition were exported after base line subtraction. Values were normalized to high-level control (WKYMVm compound, 10 nM final concentration) after subtraction of the base line value (AB addition).

pEC50: −log10 of the molar value.

As to `COc1ccc(CC(NC(=O)N[C@H]2CC[C@H](O)CC2)c2nc3ccc(F)cc3[nH]2)c(F)c1` (relative stereo) [Example 244, 1-(1-(6-Fluoro-1H-benzo[d]imidazol-2-yl)-2-(2-fluoro-4-methoxyphenyl)ethyl)-3-(trans-4-hydroxycyclohexyl)urea], the pEC50 was 8.96.
As for `COc1cc(F)c(CC(NC(=O)N[C@H]2CC[C@H](O)CC2)c2nc3ccccc3[nH]2)cc1F` (relative stereo) [Example 247, 1-(1-(1H-Benzo[d]imidazol-2-yl)-2-(2,5-difluoro-4-methoxyphenyl)ethyl)-3-(trans-4-hydroxycyclohexyl)urea], the pEC50 is 8.00.
With `CC(F)(F)c1ccc(CC(NC(=O)N[C@H]2CC[C@H](O)CC2)c2nc3ccccc3[nH]2)cc1` (relative stereo) [Example 393, 1-(1-(1H-Benzo[d]imidazol-2-yl)-2-(4-(1,1-difluoroethyl)phenyl)ethyl)-3-(trans-4-hydroxycyclohexyl)urea] the figure was 8.41; with `COc1ccc(C(C)C(NC(=O)N[C@H]2CC[C@H](O)CC2)c2nc3ccccc3[nH]2)cc1` (relative stereo) [Example 395, 1-(1-(1H-Benzo[d]imidazol-2-yl)-2-(4-methoxyphenyl)propyl)-3-(trans-4-hydroxycyclohexyl)urea], 8.19; with `COc1ccc(CC(NC(=O)N[C@H]2CC[C@H](O)CC2)c2nc3ccccc3[nH]2)c(C)c1` (relative stereo) [Example 396, 1-(1-(1H-Benzo[d]imidazol-2-yl)-2-(4-methoxy-2-methylphenyl)ethyl)-3-(trans-4-hydroxycyclohexyl)urea], 7.59.
With `COc1ccc(CC(NC(=O)N[C@H]2CC[C@H](O)CC2)c2nc3ccc(Br)cc3[nH]2)cc1` (relative stereo) [Example 424, 1-(1-(6-bromo-1H-benzo[d]imidazol-2-yl)-2-(4-methoxyphenyl)ethyl)-3-(trans-4-hydroxycyclohexyl)urea] the figure was 9.10; with `COc1ccc(CC(NC(=O)N[C@H]2CC[C@H](O)CC2)c2nc3ncncc3[nH]2)cc1` (relative stereo) [Example 426, 1-(trans-4-hydroxycyclohexyl)-3-(2-(4-methoxyphenyl)-1-(7H-purin-8-yl)ethyl)urea], 6.43; with `COc1ccc(CC(NC(=O)N[C@H]2CC[C@H](O)CC2)c2nc3cccnc3[nH]2)cc1` (relative stereo) [Example 427, 1-(1-(3H-imidazo[4,5-b]pyridin-2-yl)-2-(4-methoxyphenyl)ethyl)-3-(trans-4-hydroxycyclohexyl)urea], 6.22.
In the case of `COc1ccc(CC(NC(=O)N[C@H]2CC[C@H](O)CC2)c2nc3ccncc3[nH]2)cc1` (relative stereo) [Example 428, 1-(1-(3H-imidazo[4,5-c]pyridin-2-yl)-2-(4-methoxyphenyl)ethyl)-3-(trans-4-hydroxycyclohexyl)urea] it was 6.52; in that of `COc1ccc(CC(NC(=O)NC23CCC(O)(CC2)CC3)c2nc3ccccc3[nH]2)cc1F` (single isomer, unassigned; ent-1) [Example 257, 1-(1-(1H-Benzo[d]imidazol-2-yl)-2-(3-fluoro-4-methoxyphenyl)ethyl)-3-(4-hydroxybicyclo[2.2.2]octan-1-yl)urea (ent-1)], 8.70; in that of `O=C(NC(Cc1ccc(Br)c(F)c1)c1nc2ccccc2[nH]1)NC12CCC(O)(CC1)CC2` (single isomer, unassigned; ent-1) [Example 258, 1-(1-(1H-Benzo[d]imidazol-2-yl)-2-(4-bromo-3-fluorophenyl)ethyl)-3-(4-hydroxybicyclo[2.2.2]octan-1-yl)urea (ent-1)], 7.40.
For `COc1cc(F)c(CC(NC(=O)NC23CCC(O)(CC2)CC3)c2nc3ccccc3[nH]2)c(F)c1` (single isomer, unassigned; ent-1) [Example 259, 1-(1-(1H-Benzo[d]imidazol-2-yl)-2-(2,6-difluoro-4-methoxyphenyl)ethyl)-3-(4-hydroxybicyclo[2.2.2]octan-1-yl)urea (ent-1)], the negative-log EC50 (pEC50) was 9.30.
As to `COc1ccc(CC(NC(=O)N[C@H]2CC[C@H](O)CC2)c2nc3ccc(F)cc3[nH]2)c(F)c1` (single isomer, unassigned; ent-1) [Example 260, 1-(1-(6-Fluoro-1H-benzo[d]imidazol-2-yl)-2-(2-fluoro-4-methoxyphenyl)ethyl)-3-(trans-4-hydroxycyclohexyl)urea (ent-1)], the pEC50 was 9.40.
With `COc1ccc(CC(NC(=O)NC23CCC(O)(CC2)CC3)c2nc3ccccc3[nH]2)c(F)c1` (single isomer, unassigned; ent-1) [Example 261, 1-(1-(1H-Benzo[d]imidazol-2-yl)-2-(2-fluoro-4-methoxyphenyl)ethyl)-3-(4-hydroxybicyclo[2.2.2]octan-1-yl)urea (ent-1)] the figure was 8.49; with `COc1ccc(CC(NC(=O)NC23CCC(O)(CC2)CC3)c2nc3ccc(F)cc3[nH]2)c(F)c1` (single isomer, unassigned; ent-1) [Example 263, 1-(1-(6-Fluoro-1H-benzo[d]imidazol-2-yl)-2-(2-fluoro-4-methoxyphenyl)ethyl)-3-(4-hydroxybicyclo[2.2.2]octan-1-yl)urea (ent-1)], 8.85.
For the compound `CC1(O)CCC(NC(=O)NC(Cc2ccc(Br)cc2F)c2nc3ccccc3[nH]2)CC1` (single isomer, unassigned; ent-1) [Example 264, 1-(1-(1H-Benzo[d]imidazol-2-yl)-2-(4-bromo-2-fluorophenyl)ethyl)-3-(trans-4-hydroxy-4-methylcyclohexyl)urea (ent-1)], the pEC50 was 8.05.
In the case of `COc1ccc(CC(NC(=O)NC23CCC(O)(CC2)CC3)c2nc3ccccc3[nH]2)c(F)c1F` (single isomer, unassigned; ent-1) [Example 266, 1-(1-(1H-Benzo[d]imidazol-2-yl)-2-(2,3-difluoro-4-methoxyphenyl)ethyl)-3-(4-hydroxybicyclo[2.2.2]octan-1-yl)urea (ent-1)] it was 8.48; in that of `COc1ccc(CC(NC(=O)NC2CCC(C)(O)CC2)c2nc3ccccc3[nH]2)cc1F` (single isomer, unassigned; ent-1) [Example 308, 1-(1-(1H-Benzo[d]imidazol-2-yl)-2-(3-fluoro-4-methoxyphenyl)ethyl)-3-(trans-4-hydroxy-4-methylcyclohexyl)urea (ent-1)], 8.57; in that of `COc1ccc(CC(NC(=O)N[C@H]2CC[C@H](O)CC2)c2nc3ccccc3[nH]2)cc1F` (single isomer, unassigned; ent-1) [Example 309, 1-(1-(1H-Benzo[d]imidazol-2-yl)-2-(3-fluoro-4-methoxyphenyl)ethyl)-3-(trans-4-hydroxycyclohexyl)urea (ent-1)], 8.43.
In the case of `COc1ccc(CC(NC(=O)NC2CCC(C)(O)CC2)c2nc3ccccc3[nH]2)c(F)c1` (single isomer, unassigned; ent-1) [Example 311, 1-(1-(1H-Benzo[d]imidazol-2-yl)-2-(2-fluoro-4-methoxyphenyl)ethyl)-3-(trans-4-hydroxy-4-methylcyclohexyl)urea (ent-1)] it was 8.44; in that of `COc1c(F)c(F)c(CC(NC(=O)N[C@H]2CC[C@H](O)CC2)c2nc3ccccc3[nH]2)c(F)c1F` (single isomer, unassigned; ent-1) [Example 312, 1-(1-(1H-Benzo[d]imidazol-2-yl)-2-(2,3,5,6-tetrafluoro-4-methoxyphenyl)ethyl)-3-(trans-4-hydroxycyclohexyl)urea (ent-1)], 7.66; in that of `O=C(NC(Cc1ccc(Br)cc1F)c1nc2ccccc2[nH]1)N[C@H]1CC[C@H](O)CC1` (single isomer, unassigned; ent-1) [Example 313, 1-(1-(1H-Benzo[d]imidazol-2-yl)-2-(4-bromo-2-fluorophenyl)ethyl)-3-(trans-4-hydroxycyclohexyl)urea (ent-1)], 8.62.
On to `COc1cc(F)c(CC(NC(=O)N[C@H]2CC[C@H](O)CC2)c2nc3ccccc3[nH]2)c(F)c1` (single isomer, unassigned; ent-1) [Example 316, 1-(1-(1H-Benzo[d]imidazol-2-yl)-2-(2,6-difluoro-4-methoxyphenyl)ethyl)-3-(trans-4-hydroxycyclohexyl)urea (ent-1)], for which the pEC50 is 8.49.

The record behind these values is patent US9663473B2 (Actelion Pharmaceuticals Ltd, priority 2013, dated 2017).
